The target of data set [1] is T1, aldose reductase (Rattus norvegicus, UniProt P07943).
T1 construct: their crystalline lenses were immediately removed and stored at -80° C; The lenses were homogenized; from tissue; host or cells: crystalline lens of six-week-old male SD rats (homogenate supernatant, dialysed)
The data set is described as follows: Aldose Reductase Inhibition Test (Experiment 1). Type of data set: biochemical, rat (male SD rat crystalline lens). Conditions: DL-glycerine aldehyde 10 mM, pH 6.2, 30° C., 5 min; for inhibition at 50 µM: final concentration 5×10^-5 M (values without asterisk); for inhibition at 1 µM: *Concentration of 10^-6 M. Here is the method: Six-week-old male SD rats were killed under ether anesthesia and their crystalline lenses were immediately removed and stored at -80° C. The lenses were homogenized in 3 volumes of 135 mM sodium potassium phosphate buffer (pH: 7.0) and centrifuged at a rate of 30,000 rpm for 30 min. The supernatant was dialyzed overnight against 0.05M sodium chloride, to produce an aldose reductase solution. All operations were conducted at 4° C. The enzyme solution was stored at -80° C.
(§1) The activity of aldose reductase was determined according to a slight modification of the method of J. H. Kinoshita et al [J. Biol. Chem., 240, 877 (1965)]. Namely, 0.1 ml of DL-glycerine aldehyde (final concentration: 10 mM) was added to 0.9 ml of 100 mM sodium potassium phosphate buffer (pH 6.2) which contained lithium sulfate (final concentration: 400 mM), reduced nicotinamide adenine dinucleotide phosphate (final concentration: 0.15 mM), the enzyme solution, and the compound to be tested (final concentration: 5×10^-5 M or 10^-6 M), and then the reaction was conducted at 30° C. for 5 min. […] The maximum reducing rate of the absorbance (U) during the reaction was determined. By substracting, from this value, the maximum reducing rate (Uo) at 340 nm of the reaction solution before the addition of the substrate (DL-glycerine aldehyde), the reaction rate (V) (V=U-Uo) was calculated as a true reaction rate in the presence of the compound to be tested.
(§2) The same procedure was repeated except for the absence of the compound to be tested. A true reaction rate (Vo) in case the enzyme was not inhibited was calculated (Vo =U'-Uo '). The inhibitory activity of aldose reductase was determined by the following formula. [formula]

A short description of data set [2]: Acute toxicity test, oral (Experiment 3). Conditions: mouse, in vivo, suspended in 0.5% sodium carboxymethyl cellulose, male MCH mice, 14 days observation. The text has this:
The compound listed in Table 7 and suspended in 0.5% sodium carboxymethyl cellulose was orally administered to male MCH mice (6 weeks old: 5 animals per test group).
During the test, the mice were able to take food and water freely.

Data set [3] concerns the target T1, aldose reductase. The data set is described as follows: Aldose reductase inhibition, IC50 determination (Experiment 2). Type of data set: biochemical, rat (male SD rat crystalline lens). The settings on record: calculated from inhibitions at three final concentrations; DL-glycerine aldehyde 10 mM, pH 6.2, 30° C. Here is the method: Six-week-old male SD rats were killed under ether anesthesia and their crystalline lenses were immediately removed and stored at -80° C. […] The supernatant was dialyzed overnight against 0.05M sodium chloride, to produce an aldose reductase solution. All operations were conducted at 4° C. The enzyme solution was stored at -80° C.
as §1, with “Namely,” for “The activity of aldose reductase was determined according to a slight modification of the method of J. H. Kinoshita et al [J. Biol. Chem., 240, 877 (1965)]. Namely,”
as §2
In the same manner as Experiment 1, the inhibitions at final concentrations of 10^-6, 10^-7 and […] for the compound to be tested were calculated.

The structures appear in SMILES notation. pIC50: −log10 of the molar value.

The source of these data is patent USRE35281E, “Tetrazole derivatives and aldose reductase inhibition therewith” (Wakamoto Pharmaceutical Co., Ltd., priority 1989, dated 1996).

Usually inhibition stands for the drop in the measured response relative to a control, in per cent. A lower inhibition goes with a weak effect. Broadly, the LD50 is the dose expected to kill half of the subjects tested. In the case of `COC(=O)Cn1nnnc1-c1ccc(C)cc1` [Compound 1-7, Methyl 5-(4-methylphenyl)-1-tetrazoleacetate], at 50 µM the inhibition against aldose reductase [1] was 59%. Also, in data set [2], the LD50 at 336 h was greater than 3000 mg/kg.

By pIC50 is commonly meant the negative decadic logarithm of the IC50, by convention in mol/L. Turning to `O=C(O)Cn1nnnc1-c1ccccc1` [Compound 3-1, 5-Phenyl-1-tetrazoleacetic acid], the inhibition at 1 µM on aldose reductase [1] stood at 97%. The pIC50 on aldose reductase [3] was 7.49. In addition, the LD50 at 336 h in data set [2] was greater than 3000 mg/kg.

Regarding `Cc1ccc(-c2nnnn2CC(=O)O)cc1` [Compound 3-6, 5-(4-Methylphenyl)-1-tetrazoleacetic acid], at aldose reductase [1], testing at 1 µM gave an inhibition of 98%. At aldose reductase [3], the pIC50 is 7.60. In data set [2], this compound registered an LD50 at 336 h greater than 3000 mg/kg.

For `O=C(O)Cn1nnnc1-c1cccc(NC(=O)C(=O)O)c1` [Compound 3-12, 3'-(1-Carboxymethyl-tetrazol-5-yl)oxanilic acid], on aldose reductase [1], at 50 µM the inhibition was 97%. For the same compound, the pIC50 at aldose reductase [3] is 7.51. In data set [2], this compound registered an LD50 at 336 h greater than 3000 mg/kg.

For `O=C(O)Cn1nnnc1-c1ccc(Oc2ccccc2)cc1` [Compound 3-25, 5-(4-Phenoxyphenyl)-1-tetrazoteacetic acid], at 1 µM the inhibition against aldose reductase [1] was 94%. In addition, the pIC50 on aldose reductase [3] is 7.55.

On to `CC(C)(C)c1ccc(-c2nnnn2CC(=O)O)cc1` [Compound 3-26, 5-(4-t-Butylphenyl)-1-tetrazoleacetic acid], for which the inhibition at 1 µM on aldose reductase [1] stood at 94%. Also, the pIC50 at aldose reductase [3] is 7.57.

`CCCCOc1ccc(-c2nnnn2CC(=O)O)cc1` [Compound 3-27, 5-(4-n-Butoxyphenyl)-1-tetrazoleacetic acid]: the inhibition at 1 µM at aldose reductase [1] was determined as 96%. The pIC50 on aldose reductase [3] is 7.74.
